Earlier results in patent US6235494A, “Substrates for assessing mannan-binding protein-associated serine protease activity and methods using the substrates” (The Scripps Research Institute, priority 1999, dated 2001).

What was measured:
[1] = tested on: complement activation (C3a and C4a); conditions: normal individuals
classical pathway [2] = tested on: classical pathway
[3] = tested on: kallikrein (plasma and pancreatic)
alternative pathway [4] = tested on: alternative pathway
classical pathway [5] = tested on: classical pathway; remark: listed apart in the source
alternative pathway [6] = tested on: alternative pathway; remark: listed apart in the source

SMILES	C4a generated upon addition of EDTA (C4a; benzamidine-containing whole blood, EDTA added)	inhibition of MASP activity (MASP)	MASP activity (MASP; in EDTA)	inhibition of plasmin (plasmin)	stabilization of freshly drawn blood samples [1]	effective toward Hageman factor (Hageman factor)	complement proteinase target Factor D (Factor D)	inhibition of complement-mediated hemolysis by the classical pathway (classical pathway [2])	complement proteinase target Factor B (Factor B)	effective toward Factor Xa (Factor Xa)	inhibition of thrombin (thrombin)	complement proteinase target C1r (C1r)	inhibition of kallikrein (plasma and pancreatic) [3]	complement proteinase target C1s (C1s)	inhibition of complement-mediated hemolysis by the alternative pathway (alternative pathway [4])	block of the classical pathway (classical pathway [5])	C4a generated in whole blood (C4a; benzamidine added, before EDTA)	block of the alternative pathway (alternative pathway [6])	block of the coagulation pathway (coagulation pathway)
O=C(O)CN(CCN(CC(=O)O)CC(=O)O)CC(=O)O [EDTA, ethylened laminetetraacetic acid]	high levels of C4a are generated	–	–	–	–	–	–	–	–	–	–	–	–	–	–	–	–	–	–
CS(=O)(=O)O.CS(=O)(=O)O.N=C(N)Nc1ccc(C(=O)Oc2ccc3cc(C(=N)N)ccc3c2)cc1 [Futhan, 6-amidino-2-naphthyl p-guanidinobenzoate dimethanesulfonate]	–	inhibits MASP	no MASP activity is observed	inhibits	effectively stabilizes freshly drawn blood samples	sub-micromolar level	complement proteinase targets	inhibits	complement proteinase targets	sub-micromolar level	inhibits	complement proteinase targets	inhibits	complement proteinase targets	inhibits	–	–	–	–
N=C(N)c1ccccc1 [benzamidine]	–	does not inhibit MASP activity	–	–	–	–	–	–	–	–	–	–	–	–	–	blocks	no C4a generated	blocks	blocks
